Here are results for two molecules from PMC4718634, “Murine GPRC6A Mediates Cellular Responses to L-Amino Acids, but Not Osteocalcin Variants” (PLoS ONE, 2016).

Bridge positions count the residues as written; N and C are the ends. Ends that are not written are not given here.

For experiment [1], the system named is STC-1 cell line. Particulars: ref [22]; cited from earlier work. The source says:
Given the range of OCN variants profiled, we propose that species and/or carboxylation status is unlikely to be a cause of the lack of activity in our assays. Other potential explanations are that the species of GPRC6A is critical or that HEK293 cells lack the necessary scaffolding and/or signalling proteins found in cells endogenously expressing GPRC6A. Unfortunately, human GPRC6A was not expressed at the cell surface in our cells, precluding a study of its pharmacology. However, we identified a range of immortalised murine entero-endocrine and pancreatic β-cell lines that express Gprc6a mRNA ...

Experiment [2] relates to GPRC6A. As to conditions: HEK293 cells recombinantly expressing GPRC6A; ref [8], [10]–[12]; cited from earlier work. The source says: Additional interest in GPRC6A has emerged due to several studies reporting that it mediates the metabolic and endocrine effects of the de-carboxylated form of the osteoblast-derived peptide, osteocalcin (OCN).
In experiment [3] the test system is GPRC6A. Set-up: method as in PMID 15576628. Particulars: chimera with goldfish 5.24 receptor and full length GPRC6A; ref [1]; cited from earlier work.
Experiment [4] relates to mouse pancreatic islets. Nature of the experiment: Insulin release from mouse pancreatic islets. In kind it is cell-based. As to conditions: L-arginine 20 mM; *P < 0.05 vs Vehicle; n = 2; S3 Fig B. As for the experimental part: Islets were collagenase-isolated from mice (10 x C57Bl/6; 12–13 weeks; Charles River) and incubated overnight in RPMI (with 10% FBS (v/v), 10 mM HEPES, 100 U/ml penicillin, 100 μg/ml streptomycin, sodium pyruvate and 10 mM glucose) at 37°C in 5% CO2. Islets were seeded into a 96-well plate (4 / well) in Kreb’s buffer containing 2.8 mM glucose and washed twice with the same buffer. 200 μl test drugs were added in Kreb’s buffer with the required concentration of glucose and incubated at 37°C in 5% CO2 for 90 min. The plate was centrifuged for 10 s at 200 g, supernatant recovered and insulin levels detected as described above. This protocol was approved by the IDRS (Institut de Recherches Servier) Institutional Animal Care and Use Committee.
(§1) Concentration-response data were analysed using a three or four parameter logistic function (Motulsky & Christopoulos, 2004) to generate estimates of agonist potency (LogEC50). Data for all HEK293 assays represent the mean ± SEM of at least three independent experiments (except cell impedance, n = 2). For GLP-1 release, the data represent mean ± SEM of three to five independent experiments (except for OCN, wash; n = 2). For insulin release assays, data represent the mean ± SEM of three independent experiments (except for islet studies; n = 2). Insulin release data were normalised to the response to vehicle in either low or high [glucose]. Statistical analysis for GLP-1 release data were performed by one-way ANOVA, followed by Sidak’s multiple comparisons test (treating wash / no wash datasets separately). Statistical analyses for insulin release data were performed by two-way ANOVA (with [glucose] and drug treatment as group variables), followed by Sidak’s multiple comparisons test. Where only high [glucose] groups were evaluated, statistical analysis was by one-way ANOVA followed by Sidak’s multiple comparisons test.

Experiment [5] concerns the target T1, mGPRC6A (mouse GPRC6A) (Mus musculus, UniProt Q8K4Z6).
T1 sequence (Q8K4Z6 21-928): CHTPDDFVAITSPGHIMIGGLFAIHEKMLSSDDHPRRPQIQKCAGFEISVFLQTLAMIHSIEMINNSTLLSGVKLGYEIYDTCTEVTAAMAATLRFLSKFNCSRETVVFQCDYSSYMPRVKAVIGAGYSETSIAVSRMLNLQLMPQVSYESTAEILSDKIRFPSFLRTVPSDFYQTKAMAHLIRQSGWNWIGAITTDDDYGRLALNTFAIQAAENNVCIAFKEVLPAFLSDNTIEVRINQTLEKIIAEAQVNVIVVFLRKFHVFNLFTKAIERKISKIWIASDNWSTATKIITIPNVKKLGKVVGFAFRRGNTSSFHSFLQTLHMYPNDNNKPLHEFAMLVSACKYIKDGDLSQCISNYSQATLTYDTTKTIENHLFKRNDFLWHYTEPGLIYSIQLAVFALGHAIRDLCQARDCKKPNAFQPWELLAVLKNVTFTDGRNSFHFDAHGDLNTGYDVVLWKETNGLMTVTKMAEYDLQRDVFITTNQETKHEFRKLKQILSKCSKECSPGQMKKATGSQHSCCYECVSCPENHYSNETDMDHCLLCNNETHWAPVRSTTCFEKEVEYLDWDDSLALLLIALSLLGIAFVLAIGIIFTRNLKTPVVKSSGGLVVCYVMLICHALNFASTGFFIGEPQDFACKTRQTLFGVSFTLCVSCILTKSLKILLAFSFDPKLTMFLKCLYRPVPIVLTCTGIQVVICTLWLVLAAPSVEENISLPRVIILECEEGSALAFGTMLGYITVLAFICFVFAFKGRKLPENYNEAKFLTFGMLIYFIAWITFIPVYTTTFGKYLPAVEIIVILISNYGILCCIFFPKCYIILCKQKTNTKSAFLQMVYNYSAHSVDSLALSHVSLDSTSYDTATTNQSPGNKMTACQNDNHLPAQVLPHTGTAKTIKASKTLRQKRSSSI
Put plainly: Ca^2+i mobilisation, FlpIn-TREx-HEK293-mGPRC6A cells. The experiment is classed as cell-based. As for the experimental part:
pcDNA 5/FRT/TO constructs were isogenically integrated into a FlpIn-TREx-HEK293 cell line (Life Technologies). FlpIn-TREx-HEK293-mGPRC6A and FlpIn-TREx-HEK293-hGPRC6A cells were then selected using 600 μg/ml hygromycin and 5 μg/ml blasticidin and grown in culture medium consisting of Dulbecco’s Modified Eagle Medium (DMEM), supplemented with 10% (v/v) foetal bovine serum (FBS) at 37°C in 5% CO2 and were sub-cultured in a 1:3 ratio every 3–4 days. Cells were cultured overnight in the presence of 1 μg/ml tetracycline to induce GPRC6A expression. […] 48 h after transfection, cells were selected using 3 μg/ml puromycin and grown as above.
FlpIn-TREx-HEK293-mGPRC6A cells were seeded into T75 flasks at 70% confluency. Cells were transfected with 15μg of plasmid DNA (Gαq or GαqG66D) with Lipofectamine LTX according to manufacturer's instructions, then incubated for 24h at 37°C in 5% CO2. Cells were plated into 96-well plates (10^5 cells/well) and equilibrated at 37°C in 5% CO2 for 4-6h to adhere, whereupon cells were serum starved overnight at 37°C in 5% CO2. For the assay, cells were washed twice in Ca^2+ assay buffer (150 mM NaCl, 2.6 mM KCl, 1.2 mM MgCl2, 10 mM dextrose, 10 mM HEPES, 2.2 mM CaCl2, 0.5% (w/v) BSA and 4 mM probenecid; pH 7.4). Buffer was then replaced with Ca^2+ assay buffer containing 1μM Fluo-4-AM and incubated for 1h at 37°C in 5% CO2. Cells were washed twice more and replaced with Ca^2+ assay buffer at 37°C. Serial dilutions of test agonists were added by injection in a Flexstation™ (Molecular Devices) and fluorescence was measured at 485nm excitation and 520nm emission wavelengths. Agonist responses were normalised to the peak of response to 100 μM ATP.
as §1, with “Data” for “Concentration-response data were analysed using a three or four parameter logistic function (Motulsky & Christopoulos, 2004) to generate estimates of agonist potency (LogEC50). Data”

Experiment [6] deals with Unknown species GPRC6A. As to conditions: ref [11] (supplement list); cited from earlier work. An excerpt:
(§2) Supplement pone.0146846.s004.docx, table 1 | column: Functional assay

Experiment [7] concerns mC6A. Particulars: ref [18] (supplement list); cited from earlier work.
Excerpt: as §2

For experiment [8], the system named is 22RV1 / PC-3. Particulars: endogenous; ref [9] (supplement list); cited from earlier work.
Excerpt: as §2

Experiment [9] concerns PC-3 cells. As to conditions: endogenous; ref [18] (supplement list); cited from earlier work.
Excerpt: as §2

Experiment [10] relates to hC6A. Particulars: ref [9] (supplement list); cited from earlier work.
Excerpt: as §2

Experiment [11] has as its system TC6. Particulars: endogenous; ref [11] (supplement list); cited from earlier work.
Excerpt: as §2

Consider “de-carboxylated OCN: de-carboxylated form of the osteoblast-derived peptide, osteocalcin (YLYQWLGAPVPYPDPLEPRREVCELNPDCDELADHIGFQEAYRRFYGPV; disulfide 23-29 (inferred); not fully specified; printed as YLYQWLGAPVPYPDPLEPRREVCELNPDCDELADHIGFQEAYRRFYGPV-NH2/-COOH; ends not checked; UniProt P02818 52-100, looked up)”, for which the GLP-1 release entry in experiment [1] is “evoke GLP-1 release”. Besides, in [2], the ERK1/2 phosphorylation entry is reported as “can stimulate cAMP accumulation or ERK1/2 phosphorylation” and the cAMP accumulation entry is on record as “can stimulate cAMP accumulation or ERK1/2 phosphorylation”.
Take `N=C(N)NCCC[C@H](N)C(=O)O` [L-arginine]: the “agonist response of GPRC6A” value in experiment [3] is reported as “mediates responses to L-amino acids”. Besides, in experiment [4], the “glucose-sensitive insulin secretion, L-arginine” value is on record as “significantly increased GSIS”. In [5], the response was half-maximal at 15.8 µM (EC50). Further, the “potency at murine GPRC6A (calcium and inositol phosphate, words)” value in experiment [5] (calcium mobilisation and inositol phosphate accumulation, Discussion) was “most potent agonists”. Further, in experiment [5] (co-expressing GαqG66D, Fig 1D), the “rank order of potency, Ca^2+ mobilisation” value was “L-ornithine > L-arginine = L-lysine”. Further, the pERK1/2 response result in experiment [6] is reported as “pERK1/2 - response to Ca^2+, L-Arg, OCN”; in [8], “pERK1/2 – response to Ca^2+, ZnCl2, OCN, Arginine, Testosterone-BSA Proliferation – response to Ca^2+, OCN PSA, Runx2 expression – response to OCN, Arg, R1881 Chemotaxis (22RV1) – response to Ca^2+, OCN”; in experiment [9], “pERK1/2 – response to Testosterone, L-Arg”; in experiment [10], “pERK1/2 – response to Ca^2+, ZnCl2, OCN, Arginine, Testosterone-BSA”. Besides, the cAMP response result in experiment [7] is recorded as “cAMP – response to Testosterone, L-Arg pERK1/2 – response to Testosterone”. Also, in [8], the “PSA, Runx2 expression response” value is “pERK1/2 – response to Ca^2+, ZnCl2, OCN, Arginine, Testosterone-BSA Proliferation – response to Ca^2+, OCN PSA, Runx2 expression – response to OCN, Arg, R1881 Chemotaxis (22RV1) – response to Ca^2+, OCN”. Further, the “pERK1/2, pPKD1 response” value in experiment [11] was “pERK1/2, pPKD1 – response to OCN, L-Arg”.
